Where two headings read alike, the source gives them in different places.
Key:
Format in all cases: in vivo
Meloidogyne incognita [1] = experiment: Population density of J2 of root knot nematodes in soil, cucumber greenhouse; details: for Population decline rate / Relative population reduction rate: J2 in soil; for Population decline rate: before administration vs end of test; for Relative population reduction rate: compared with the blank control; for population density of second instar larvae in soil, Before administration / population density of second instar larvae in soil, End of test: cucumber greenhouse soil
Rice blast [2] = details: 27 d After first administration; for Relative control: panicle blast
Rice blast [3] = details: for Avg. control effect: leaf blast
cucumber = experiment: Cucumber plant height at early stage; details: for Growth effect: plant height compared with CK0; for plant height at early stage, Avg. value: average of three replicates; for plant height at early stage, R1: average value of replicate 1; for plant height at early stage, R3: average value of replicate 3
Meloidogyne incognita [4] = experiment: Root-knot disease index of cucumber; details: for root-knot index of plants, Avg. value: average of three replicates; for root-knot index of plants, R1: average value of replicate 1; for root-knot index of plants, R3: average value of replicate 3
[5] = 14 d After first administration
[6] = before the first administration
[7] = root-knot index compared with CK0

Compound	Population decline rate (Meloidogyne incognita [1]) [%]	Relative population reduction rate (Meloidogyne incognita [1]) [%]	Avg. panicle blast disease index (Rice blast [2])	Relative control (Rice blast [2]) [A %]	Avg. leaf blast disease index (Rice blast [3]; 7 d After first administration)	Avg. leaf blast disease index (Rice blast [3]; [5])	Avg. control effect (Rice blast [3]; 7 d After first administration)	Avg. control effect (Rice blast [3]; [5]) [A %]	Growth effect (cucumber) [%]	root-knot index of plants, Avg. value (Meloidogyne incognita [4])	root-knot index of plants, R1 (Meloidogyne incognita [4])	root-knot index of plants, R3 (Meloidogyne incognita [4])	population density of second instar larvae in soil, Before administration (Meloidogyne incognita [1]) [strip/100 mL soil]	population density of second instar larvae in soil, End of test (Meloidogyne incognita [1]) [strip/100 mL soil]	plant height at early stage, Avg. value (cucumber)	plant height at early stage, R1 (cucumber) [cm]	plant height at early stage, R3 (cucumber) [cm]	other results
C[C@H]1O[C@H](O[C@H]2[C@H](O)[C@@H](O)[C@@H](O)[C@H](O)[C@@H]2O)[C@@H](N)C[C@@H]1NC(=N)C(=O)O [CK2, kasugamycin]	73.31	76.05	0.86	66.3	2.26	2.30	40.8AB %	55.7	6.5	–	–	–	–	–	–	–	–	Leaf blast disease index before first administration (Rice blast [3]; [6]): 1.61
Cc1cccc2sc3nncn3c12 [CK3, Tricyclazole]	–	–	0.65	74.7	2.04	2.14	48.2A %	60.3	–	–	–	–	–	–	–	–	–	Leaf rust before administration (Rice blast [3]; [6]): 1.59
CN1CSC(=S)N(C)C1 [Dazomet, dazomet]	−119.21	−116.47	–	–	–	–	–	–	−0.4	26.44ab	27.33	26.33	429	940	100.6a cm	98.5	103.5	Control effect on root-knot index (Meloidogyne incognita [4]; [7]): 26.77%
O=C(NCc1ncc(C(F)(F)F)cc1Cl)c1c(Cl)cccc1Cl [Fluopicolide, fluopicolide]	73.31	76.05	–	–	–	–	–	–	6.5	25.00a	28.33	24.67	390	104	107.6bc cm	109.4	109.3	Growth effect (Meloidogyne incognita [4]; [7]): 30.77%

Reference: US11523614B2, “Soluble granule of Bacillus velezensis and its preparation method” (priority 2019, dated 2022)
